What all share (format): biochemical
One assay addresses Bovine LOX (Bos taurus (Bovine), UniProt P33072). Description: LOX inhibition, Amplex Red oxidation assay. As to conditions: 30 min preincubation at 37 °C, putrescine substrate. From the text:
Lysyl oxidase (LOX) is an extracellular copper dependent enzyme which oxidizes peptidyl lysine and hydroxylysine residues in collagen and lysine residues in elastin to produce peptidyl alpha-aminoadipic-delta-semialdehydes. […] There are five LOX family members; these are LOX, LOXL1, LOXL2, LOXL3 and LOXL4. LOX and LOXL family members can be acquired as recombinant active proteins from commercial sources, or extracted from animal tissues like bovine aorta, tendons, pig skin; or prepared from cell cultures. The inhibitory effects of the compounds of the present invention were tested against the given LOX-LOXL preparation using a method based on the detection of hydrogen peroxide with an Amplex Red oxidation assay (Zhou et al. A stable nonfluorescent derivative of resorufin for the fluorometric determination of trace hydrogen peroxide: applications in detecting the activity of phagocyte NADPH oxidase and other oxidases. Anal. Biochem. 1997; 253, 162-168). The assay was developed using either 384 or 96 well format. Briefly, in a standard black, clear bottom 384 well plate assay 25 μL of a dilution of any of the isoenzymes and orthologues in 1.2 M urea, 50 mM sodium borate buffer (pH 8.2) were added into each well in the presence of 1 μM mofegiline and 0.5 mM pargyline (to inhibit SSAO and MAO-B and MAO-A, respectively; not necessary if the enzyme is from a recombinant or purified form). […] Twenty five μL of a reaction mixture containing twice the KM concentration of putrescine (Sigma Aldrich, e.g. 20 mM for LOX, or 10 mM for LOXL2 and LOXL3), 120 μM Amplex Red (Sigma Aldrich) and 1.5 U/mL horseradish peroxidase (Sigma Aldrich) prepared in 1.2 M urea, 50 mM sodium borate buffer (pH 8.2) were then added to the corresponding wells. The above volumes were doubled in the case of 96 wells plate. The fluorescence (RFU) was read every 2.5 min for 30 min at […] 37° C., excitation 565 nm and emission 590 (Optima; BMG labtech). The slope of the kinetics for each well was calculated using MARS data analysis software (BMG labtech) and this value was used to deduce the IC50 value (Dotmatics).

The target of assay [1] is T1, LOXL2 (Homo sapiens (Human), UniProt Q9Y4K0). As to the kind of experiment: LOXL2 inhibition, Amplex Red oxidation assay. As to conditions: 30 min preincubation at 37 °C, putrescine substrate. An excerpt:
Lysyl oxidase (LOX) is an extracellular copper dependent enzyme which oxidizes peptidyl lysine and hydroxylysine residues in collagen and lysine residues in elastin to produce peptidyl alpha-aminoadipic-delta-semialdehydes. […] There are five LOX family members; these are LOX, LOXL1, LOXL2, LOXL3 and LOXL4. LOX and LOXL family members can be acquired as recombinant active proteins from commercial sources, or extracted from animal tissues like bovine aorta, tendons, pig skin; or prepared from cell cultures. The inhibitory effects of the compounds of the present invention were tested against the given LOX-LOXL preparation using a method based on the detection of hydrogen peroxide with an Amplex Red oxidation assay (Zhou et al. A stable nonfluorescent derivative of resorufin for the fluorometric determination of trace hydrogen peroxide: applications in detecting the activity of phagocyte NADPH oxidase and other oxidases. Anal. Biochem. 1997; 253, 162-168). The assay was developed using either 384 or 96 well format. Briefly, in a standard black, clear bottom 384 well plate assay 25 μL of a dilution of any of the isoenzymes and orthologues in 1.2 M urea, 50 mM sodium borate buffer (pH 8.2) were added into each well in the presence of 1 μM mofegiline and 0.5 mM pargyline (to inhibit SSAO and MAO-B and MAO-A, respectively; not necessary if the enzyme is from a recombinant or purified form). Test compounds were dissolved in DMSO and tested in a Concentration Response Curve (CRC) with 11 data points, typically in the micromolar or nanomolar range after incubation with the enzyme for 30 min at 37° C. Twenty five μL of a reaction mixture containing twice the KM concentration of putrescine (Sigma Aldrich, e.g. 20 mM for LOX, or 10 mM for LOXL2 and LOXL3), 120 μM Amplex Red (Sigma Aldrich) and 1.5 U/mL horseradish peroxidase (Sigma Aldrich) prepared in 1.2 M urea, 50 mM sodium borate buffer (pH 8.2) were then added to the corresponding wells. The above volumes were doubled in the case of 96 wells plate. The fluorescence (RFU) was read every 2.5 min for 30 min at […] 37° C., excitation 565 nm and emission 590 (Optima; BMG labtech). The slope of the kinetics for each well was calculated using MARS data analysis software (BMG labtech) and this value was used to deduce the IC50 value (Dotmatics).

The next assay concerns the target LOXL1 (Homo sapiens (Human), UniProt Q08397). Description: Jump dilution experiment, sustained inhibition of LOXL1.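 Note: 30× IC50 used only where needed so inhibitor exceeds enzyme concentration.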 As to conditions: jump dilution after 40 min at 37 °C with 10× or 30× IC50; vs non-inhibited controls. The method, then:
(§1) Jump Dilution experiment: The assay was developed using a 96 well format and the starting enzyme concentration was set 100 times higher than for the inhibition studies. […] After the incubation, the mixture was diluted 50× in assay buffer, followed by a further 2× dilution in Amplex Red-horseradish peroxidase-putrescine reaction mix (same as per the inhibition studies) prior to the fluorescent measurement. Results were expressed in % recovery of the signal after a specified time by comparison with non-inhibited controls.

Assay [2] concerns the target T1, LOXL2. As to the kind of experiment: Jump dilution experiment, sustained inhibition of LOXL2.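 Note: 30× IC50 used only where needed so inhibitor exceeds enzyme concentration.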 As to conditions: jump dilution after 40 min at 37 °C with 10× or 30× IC50; vs non-inhibited controls. The method, then: as §1
Assay [3] addresses Human recombinant SSAO/VAP-1 (Homo sapiens (Human), UniProt Q16853). As to the kind of experiment: Inhibition of human recombinant SSAO/VAP-1. The settings on record: 30 min preincubation at 37 °C, benzylamine 600 μM; read-out: SSAO/VAP-1 Activity IC50. The method, then: Human recombinant SSAO/VAP-1 amine oxidase activity was determined using the coupled colorimetric method as described for monoamine oxidase, copper-containing amine oxidases and related enzymes (Holt A. and Palcic M., A peroxidase-coupled continuous absorbance plate-reader assay for flavin monoamine oxidases, copper-containing amine oxidases and related enzymes. Nat Protoc 2006; 1: 2498-2505). Briefly, a cloned cDNA template corresponding to residues 34-763 of human SSAO/VAP-1, and incorporating a mouse Ig kappa (κ) signal sequence, N-terminal flag epitope tag and tobacco etch virus (TEV) cleavage site, was assembled in a mammalian expression vector (pLO-CMV) by Geneart AG. This vector containing human SSAO/VAP-1 residues was transfected into CHO-Kl glycosylation mutant cell line, Lec 8. A clone stably expressing human SSAO/VAP-1 was isolated and cultured in large scale. Active human SSAO/VAP-1 was purified and recovered using immunoaffinity chromatography. This was used as the source for SSAO/VAP-1 activity. A high-throughput colorimetric assay was developed using either 96 or 384 well format. Briefly, in a standard 96 well plate assay 50 μL of purified human SSAO/VAP-1 (0.25 μg/mL) in 0.1 M sodium phosphate buffer (pH 7.4) was added into each well. Test compounds were dissolved in DMSO and tested in a Concentration Response Curve (CRC) with 4-11 data points, typically in the micromolar or nanomolar range after incubation with human SSAO/VAP-1 for 30 min at 37° C. After 30 min incubation, 50 μL of the reaction mixture containing 600 μM benzylamine (Sigma Aldrich), 120 μM Amplex Red (Sigma Aldrich) and 1.5 U/mL horseradish peroxidase (Sigma Aldrich) prepared in 0.1 M sodium phosphate buffer (pH 7.4) were added to the corresponding well. The fluorescence unit (RFU) was read every 2.5 min for 30 min at 37° C. excitation 565 nm and emission 590 (Optima; BMG labtech). The slope of the kinetics for each well was calculated using MARS data analysis software (BMG labtech) and this value was used to deduce the IC50 value (Dotmatics).

The target in the next assay is Recombinant human MAO-B (Homo sapiens (Human), UniProt P27338). As to the kind of experiment: Inhibition of human recombinant MAO-B. The settings on record: benzylamine 100 μM. The method, then: The specificity of the compounds of this invention was tested by determining their ability to inhibit MAO-B activities in vitro. Recombinant human MAO-B (0.06 mg/mL; Sigma Aldrich) was used as source of MAO-B enzyme activities. The assay was performed in a similar way as for human SSAO/VAP-1 (Example 28) except, the substrate benzylamine was used at 100 μM.

Counter-ions that a name gives are not always drawn.

LOXL1, sequence (Q08397 96-574, species assumed): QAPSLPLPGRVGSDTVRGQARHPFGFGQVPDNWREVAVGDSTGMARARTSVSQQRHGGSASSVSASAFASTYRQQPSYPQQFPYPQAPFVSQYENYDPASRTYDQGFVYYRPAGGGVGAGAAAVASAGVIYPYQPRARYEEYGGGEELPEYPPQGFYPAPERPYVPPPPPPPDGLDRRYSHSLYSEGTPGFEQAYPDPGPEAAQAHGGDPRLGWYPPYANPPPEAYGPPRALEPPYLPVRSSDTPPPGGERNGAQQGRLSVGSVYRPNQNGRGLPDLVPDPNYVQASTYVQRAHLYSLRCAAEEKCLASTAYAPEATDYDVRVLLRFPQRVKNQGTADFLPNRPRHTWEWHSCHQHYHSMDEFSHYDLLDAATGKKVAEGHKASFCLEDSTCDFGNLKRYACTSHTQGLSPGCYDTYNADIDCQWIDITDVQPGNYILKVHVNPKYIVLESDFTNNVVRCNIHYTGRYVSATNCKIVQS
T1 sequence (Q9Y4K0 26-774): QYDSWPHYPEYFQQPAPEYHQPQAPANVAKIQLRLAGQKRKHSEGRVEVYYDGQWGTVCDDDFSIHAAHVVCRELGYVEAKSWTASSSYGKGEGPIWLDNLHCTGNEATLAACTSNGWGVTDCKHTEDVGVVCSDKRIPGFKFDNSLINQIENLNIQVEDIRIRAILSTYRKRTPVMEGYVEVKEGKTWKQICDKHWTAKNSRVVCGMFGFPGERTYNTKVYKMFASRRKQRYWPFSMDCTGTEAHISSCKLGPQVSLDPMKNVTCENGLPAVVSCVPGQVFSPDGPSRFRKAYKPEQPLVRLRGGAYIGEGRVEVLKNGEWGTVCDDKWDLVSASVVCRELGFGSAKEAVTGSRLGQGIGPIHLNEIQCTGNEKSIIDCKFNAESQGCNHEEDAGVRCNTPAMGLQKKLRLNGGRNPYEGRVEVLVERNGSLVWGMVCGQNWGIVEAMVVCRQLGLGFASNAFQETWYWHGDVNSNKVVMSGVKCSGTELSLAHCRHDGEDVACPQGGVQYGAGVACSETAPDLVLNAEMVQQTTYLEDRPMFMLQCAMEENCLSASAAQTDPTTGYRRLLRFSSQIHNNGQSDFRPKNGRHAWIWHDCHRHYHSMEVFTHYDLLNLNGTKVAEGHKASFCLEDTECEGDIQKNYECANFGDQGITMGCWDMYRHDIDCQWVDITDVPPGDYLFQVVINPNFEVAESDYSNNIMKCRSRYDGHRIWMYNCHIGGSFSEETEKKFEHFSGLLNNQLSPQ
Human recombinant SSAO/VAP-1, sequence (Q16853 34-763): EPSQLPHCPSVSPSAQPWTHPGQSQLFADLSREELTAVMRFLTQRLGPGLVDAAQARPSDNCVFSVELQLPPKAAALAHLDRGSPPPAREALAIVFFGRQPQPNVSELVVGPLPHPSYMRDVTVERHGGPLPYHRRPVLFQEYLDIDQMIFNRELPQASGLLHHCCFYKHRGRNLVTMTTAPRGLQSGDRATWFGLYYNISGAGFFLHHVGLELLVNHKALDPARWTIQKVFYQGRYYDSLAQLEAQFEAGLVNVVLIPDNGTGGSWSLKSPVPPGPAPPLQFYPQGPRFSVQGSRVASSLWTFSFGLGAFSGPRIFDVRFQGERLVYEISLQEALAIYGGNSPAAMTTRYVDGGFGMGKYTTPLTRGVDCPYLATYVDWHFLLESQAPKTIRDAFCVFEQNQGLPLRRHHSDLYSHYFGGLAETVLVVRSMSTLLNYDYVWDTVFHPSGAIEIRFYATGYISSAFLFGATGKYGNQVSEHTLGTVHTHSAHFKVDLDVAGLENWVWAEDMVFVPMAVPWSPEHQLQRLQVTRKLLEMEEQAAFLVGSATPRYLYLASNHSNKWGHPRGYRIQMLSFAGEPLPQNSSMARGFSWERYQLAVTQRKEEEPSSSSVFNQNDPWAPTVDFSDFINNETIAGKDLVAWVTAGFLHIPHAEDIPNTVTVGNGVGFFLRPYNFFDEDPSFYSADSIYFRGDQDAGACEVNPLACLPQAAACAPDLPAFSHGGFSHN
Recombinant human MAO-B, sequence (P27338 whole entry): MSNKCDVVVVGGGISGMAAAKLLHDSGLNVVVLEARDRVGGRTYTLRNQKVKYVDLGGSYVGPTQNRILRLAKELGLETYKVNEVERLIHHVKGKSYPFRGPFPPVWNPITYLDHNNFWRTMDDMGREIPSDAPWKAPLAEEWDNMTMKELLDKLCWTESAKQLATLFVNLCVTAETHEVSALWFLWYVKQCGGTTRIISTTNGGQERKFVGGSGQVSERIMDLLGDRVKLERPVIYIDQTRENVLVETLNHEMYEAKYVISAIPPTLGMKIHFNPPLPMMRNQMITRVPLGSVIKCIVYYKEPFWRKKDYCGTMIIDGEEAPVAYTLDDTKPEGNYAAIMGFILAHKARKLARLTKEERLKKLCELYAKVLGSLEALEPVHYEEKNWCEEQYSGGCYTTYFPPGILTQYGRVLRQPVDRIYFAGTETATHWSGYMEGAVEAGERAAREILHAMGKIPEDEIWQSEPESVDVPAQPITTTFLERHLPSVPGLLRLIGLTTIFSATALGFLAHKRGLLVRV
Bovine LOX, sequence (P33072 170-418): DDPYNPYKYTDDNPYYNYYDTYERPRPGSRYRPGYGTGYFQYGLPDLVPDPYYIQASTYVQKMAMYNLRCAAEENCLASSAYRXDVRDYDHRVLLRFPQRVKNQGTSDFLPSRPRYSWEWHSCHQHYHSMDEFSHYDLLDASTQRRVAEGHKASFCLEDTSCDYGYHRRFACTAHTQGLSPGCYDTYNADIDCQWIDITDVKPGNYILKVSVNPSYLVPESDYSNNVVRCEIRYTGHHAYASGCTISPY

As to `NC/C=C(\F)CS(=O)(=O)c1ccc(C(=O)NC23CC4CC(CC(C4)C2)C3)cc1` [Compound 4, N-(adamantan-1-yl)-4-(((Z)-4-amino-2-fluorobut-2-en-1-yl)sulfonyl)benzamide hydrochloride], the IC50 against Bovine LOX is under 10 µM; against LOXL2 [1] it was under 10 µM; in assay [3], over 30 µM; at Recombinant human MAO-B, under 10 µM. The “LOXL1 - Recovery of activity. (%)” value at LOXL1 is listed as 16.7%. In addition, the “LOXL2 - Recovery of activity. (%)” value on LOXL2 [2] is recorded as 21.2%.
As for `CN(C)S(=O)(=O)c1ccc(COc2ccccc2S(=O)(=O)C/C(F)=C/CN)cc1` [Compound 5, (Z)-4-((2-((4-amino-2-fluorobut-2-en-1-yl)sulfonyl)phenoxy)methyl)-N,N-dimethylbenzenesulfonamide hydrochloride], the IC50 at Bovine LOX is under 1 µM; against LOXL2 [1], under 1 µM; in assay [3], over 30 µM; on Recombinant human MAO-B, over 30 µM. Besides, at LOXL1, the “LOXL1 - Recovery of activity. (%)” value came to 3.6%. Further, on LOXL2 [2], the “LOXL2 - Recovery of activity. (%)” value worked out at 10.0%.
With `CN(C)S(=O)(=O)c1ccc(Oc2ccccc2S(=O)(=O)C/C(F)=C/CN)cc1` [Compound 6, (Z)-4-(2-((4-amino-2-fluorobut-2-en-1-yl)sulfonyl)phenoxy)-N,N-dimethylbenzenesulfonamide hydrochloride], the IC50 on Bovine LOX is under 10 µM; on LOXL2 [1], under 1 µM; in assay [3] it was over 30 µM; on Recombinant human MAO-B, over 30 µM. For the same molecule, at LOXL1, the “LOXL1 - Recovery of activity. (%)” value is 2.5%. Also, the “LOXL2 - Recovery of activity. (%)” value on LOXL2 [2] came out at 10.4%.
Take `CN(C)S(=O)(=O)c1ccc(COc2ccc(S(=O)(=O)C/C(F)=C/CN)cc2)cc1` [Compound 10, (Z)-4-((4-((4-amino-2-fluorobut-2-en-1-yl)sulfonyl)phenoxy)methyl)-N,N-dimethylbenzenesulfonamide hydrochloride]: the IC50 is under 10 µM at Bovine LOX, under 10 µM against LOXL2 [1], over 30 µM in assay [3] and over 30 µM at Recombinant human MAO-B. Further, the “LOXL2 - Recovery of activity. (%)” value on LOXL2 [2] was 15.2%.
In the case of `CC(C)N(C(C)C)S(=O)(=O)c1ccc(COc2ccccc2S(=O)(=O)C/C(F)=C/CN)cc1` [Compound 11, (Z)-4-((2-((4-amino-2-fluorobut-2-en-1-yl)sulfonyl)phenoxy)methyl)-N,N-diisopropylbenzenesulfonamide hydrochloride], the IC50 at Bovine LOX was under 1 µM; at LOXL2 [1], under 1 µM; in assay [3], over 30 µM; at Recombinant human MAO-B, over 30 µM. In addition, on LOXL1, the “LOXL1 - Recovery of activity. (%)” value turned out to be 10.2%.
`CC(C)NS(=O)(=O)c1ccc(COc2ccccc2S(=O)(=O)C/C(F)=C/CN)cc1` [Compound 14, (Z)-4-((2-((4-amino-2-fluorobut-2-en-1-yl)sulfonyl)phenoxy)methyl)-N-isopropylbenzenesulfonamide hydrochloride]: the IC50 against Bovine LOX was under 1 µM; at LOXL2 [1], under 1 µM; in assay [3], over 30 µM; at Recombinant human MAO-B, over 30 µM. For the same molecule, the “LOXL1 - Recovery of activity. (%)” value at LOXL1 stood at 1.9%.
For the molecule `CC(C)N(C(C)C)S(=O)(=O)c1ccc(NC(=O)c2ccccc2S(=O)(=O)C/C(F)=C/CN)cc1` [Compound 15, (Z)-2-((4-amino-2-fluorobut-2-en-1-yl)sulfonyl)-N-(4-(N,N-diisopropylsulfamoyl)phenyl)benzamide hydrochloride], the IC50 was under 10 µM against Bovine LOX, under 1 µM against LOXL2 [1], over 30 µM in assay [3] and over 30 µM at Recombinant human MAO-B. The “LOXL1 - Recovery of activity. (%)” value at LOXL1 is on record as 26.1%.
Take `CN(C)S(=O)(=O)c1ccc(Oc2cccc(S(=O)(=O)C/C(F)=C/CN)c2)cc1` [Compound 16, (Z)-4-(3-(4-amino-2-fluorobut-2-enylsulfonyl)phenoxy)-N,N-dimethylbenzenesulfonamide hydrochloride]: the IC50 on Bovine LOX and at LOXL2 [1] was under 1 µM each time. For the same molecule, the “LOXL2 - Recovery of activity. (%)” value at LOXL2 [2] was 14.4%.
As for `CN(C)S(=O)(=O)c1cccc(Oc2cccc(S(=O)(=O)C/C(F)=C/CN)c2)c1` [Compound 17, (Z)-3-(3-(4-amino-2-fluorobut-2-enylsulfonyl)phenoxy)-N,N-dimethylbenzenesulfonamide hydrochloride], the values for the IC50 against Bovine LOX and against LOXL2 [1] were under 10 µM and under 1 µM, respectively. Moreover, at LOXL2 [2], the “LOXL2 - Recovery of activity. (%)” value is given as 5.3%.
Regarding `CN(C)S(=O)(=O)c1cccc(Oc2ccccc2S(=O)(=O)C/C(F)=C/CN)c1` [Compound 18, (Z)-3-(2-(4-amino-2-fluorobut-2-enylsulfonyl)phenoxy)-N,N-dimethylbenzenesulfonamide hydrochloride], the IC50 against Bovine LOX and at LOXL2 [1] was under 1 µM in each case. The “LOXL2 - Recovery of activity. (%)” value on LOXL2 [2] came to 6.9%.

For the origin of these results see US12178791B2, “Haloallylamine sulfone derivative inhibitors of lysyl oxidases and uses thereof” (Syntara Limited, priority 2018, dated 2024).
